Data on 31 compounds can be found in ChEMBL document CHEMBL4808169, “Discovery of Potent and Fast-Acting Antimalarial Bis-1,2,4-triazines” (J Med Chem, 2021).

Data set [1] concerns Plasmodium falciparum. Put plainly: microbe, parasite or virus in culture. The conditions noted are these: 3D7, 72 h.
Description: Antimalarial activity against Plasmodium falciparum 3D7 infected in human red blood cells after 72 hrs by DAPI-staining based assay
The test system of data set [2] is Plasmodium falciparum. Put plainly: Bactericidal activity against Plasmodium falciparum 3D7A at 10 times IC50. Type of data set: functional, organism-based.
Data set [3] has as its system Plasmodium falciparum. Nature of the data set: Antimalarial activity against Plasmodium falciparum 3D7 infected in human red blood cells at 40 uM after 72 hrs by DAPI-staining based assay relative to control. Type of data set: functional.
Data set [4] is described as follows: Kinetic solubility of compound at pH 6.5 by nephelometry. Type of data set: physicochemical. Conditions: buffer, read-out: Kinetic_solubility.
The nature of data set [5]: Intrinsic clearance in human liver microsomes assessed per mg of protein in presence of NADPH by UPLC-MS analysis. Type of data set: ADME, Microsome. The conditions noted are these: read-out: CLH. In general terms: Liver microsomes are a subcellular fraction often used to study metabolism.
Data set [6] in a line: Kinetic solubility of compound at pH 2 by nephelometry. Type of data set: physicochemical. The conditions noted are these: buffer, read-out: Kinetic_solubility.
Data set [7] in a line: Half life in human liver microsomes in presence of NADPH by UPLC-MS analysis. It is filed as ADME, Microsome.
Data set [8] can be described thus: Intrinsic clearance in mouse liver microsomes in presence of NADPH by UPLC-MS analysis. Type of data set: ADME, Microsome.
Data set [9] in a line: Half life in mouse liver microsomes in presence of NADPH by UPLC-MS analysis. It is filed as ADME, Microsome.
Another data set relates to Plasmodium berghei. Nature of the data set: Antiplasmodial activity against Plasmodium berghei ANKA infected in po dosed Swiss mouse administered at 2 hrs post infection and measured on day 4 by Peter's 4-day test. Type of data set: functional.

Values after ≈ are worked out from the molar mass of the structure shown. Active and inactive are the calls of the source. No cut-off for these calls is given here.

As usually defined, the IC50 is the concentration at which inhibition is half-maximal. Lower therefore signals higher potency. Turning to `FC(F)(F)COc1nncc(-c2cnnc(OCC(F)(F)F)n2)n1`, the IC50 with Plasmodium falciparum [1] was found to be 420 nM. That is a sub-micromolar value. On the same count and under the same terms, under `C#CCOc1nncc(-c2cnnc(SC)n2)n1` stands 130 nM. In the case of `CCN(CC)CCCC(C)Nc1ccnc2cc(Cl)ccc12` (configuration not stated) [CHLOROQUINE], the result in the data set with Plasmodium falciparum [2] was Active. `CSc1nncc(-c2cnnc(OC(C)CN(C)C)n2)n1` (configuration not stated): the IC50 with Plasmodium falciparum [1] stood at 32 nM.

Take `CC(C)Sc1nncc(-c2cnnc(SCCN(C)C)n2)n1`: half-maximal inhibition in the data set on Plasmodium falciparum [1] (IC50) was put at 210 nM. Still for that read-out and setting: the result for `CCCOc1nncc(-c2cnnc(SCCN(C)C)n2)n1` reads 11 nM; that for `CN(C)CCOc1nncc(-c2cnnc(OCCN(C)C)n2)n1`, 8600 nM. On the same count and under the same terms, the result for `CSc1nncc(-c2cnnc(SCCCN=[N+]=[N-])n2)n1` reads 4.4 nM. The same measure, in the same setting: the result for `Cc1ncsc1CCOc1nncc(-c2cnnc(OCCc3scnc3C)n2)n1` reads 500 nM.

Take `C#CCSc1nncc(-c2cnnc(SC)n2)n1`: half-maximal inhibition in the data set with Plasmodium falciparum [1] (IC50) was put at 32 nM. Same read-out and setting: under `c1nnc(OC2CC2)nc1-c1cnnc(OC2CC2)n1` stands 890 nM. In turn, `COCCOc1nncc(-c2cnnc(OCCOC)n2)n1` displayed an Activity with Plasmodium falciparum [3] of 100%. For the compound `C[Si](C)(C)CCOc1nncc(-c2cnnc(OCC[Si](C)(C)C)n2)n1`, in the data set on Plasmodium falciparum [1], inhibition was half-maximal at 720 nM (IC50). With `CC#CCOc1nncc(-c2cnnc(OCC#CC)n2)n1`, in the data set with Plasmodium falciparum [1], the concentration for half-maximal inhibition (IC50) was 1000 nM. The same measure, in the same setting: under `CC(CN(C)C)Oc1nncc(-c2cnnc(OC(C)CN(C)C)n2)n1` (configuration not stated) stands 12000 nM. The half-life is how long it takes for the measured level to halve. Turning to `CCc1nncc(-c2cnnc(SCCN(C)C)n2)n1`, the solubility kinetic in [4] was 25 µg/mL (≈ 85.8 µM); in data set [6], 50 µg/mL (≈ 172 µM). Moreover, the microsomal CLint in [5] came out at 9 µL/min/mg; in data set [8] it was 118 µL/min/mg. Moreover, the figures for the half-life in data set [7] and in data set [9] were 199 min and 15 min, respectively. Also, in the data set on Plasmodium falciparum [1], inhibition was half-maximal at 120 nM (IC50). `CC(C)Sc1nncc(-c2cnnc(OCCN(C)C)n2)n1`: inhibition in the data set with Plasmodium falciparum [1] was half-maximal at 12 nM (IC50). This lies in the double-digit nanomolar range.

In turn, `CC(C)Oc1nncc(-c2cnnc(SCCN(C)C)n2)n1` yielded a 50% inhibitory concentration (IC50) in the data set with Plasmodium falciparum [1] of 81 nM. As for `CCCCc1nncc(-c2cnnc(SCCN(C)C)n2)n1`, the solubility kinetic in data set [4] was found to be 25 µg/mL (≈ 78.3 µM); in [6], 50 µg/mL (≈ 157 µM). Also, the microsomal CLint in data set [5] was determined as 56 µL/min/mg; in data set [8] it was 330 µL/min/mg. The half-life turned out to be 31 min in [7] and 5 min in data set [9]. The same compound showed an IC50 in the data set with Plasmodium falciparum [1] of 9 nM.

Compound `FC(F)(F)CCOc1nncc(-c2cnnc(OCCC(F)(F)F)n2)n1` came in with a half-inhibitory concentration (IC50) with Plasmodium falciparum [1] of 93 nM. On the same count and under the same terms, under `COCCSc1nncc(-c2cnnc(SCCN(C)C)n2)n1` stands 260 nM. On to `CSc1nncc(-c2cnnc(SCCN(C)C)n2)n1`, for which the solubility kinetic in data set [4] and in data set [6] was 6.3 µg/mL (≈ 20.4 µM) throughout. Consider `CCCCc1nncc(-c2cnnc(CCCC)n2)n1`, for which the half-maximal inhibitory concentration (IC50) with Plasmodium falciparum [1] was 340 nM. That is a sub-micromolar value. For orientation: ED50 means the dose that gives a 50% effect, or the effect in half of the subjects. The low end stands for greater potency, the high end for weaker potency. On to `C[C@H]1[C@H](OC(=O)CCC(=O)O)O[C@@H]2O[C@@]3(C)CC[C@H]4[C@H](C)CC[C@@H]1[C@@]24OO3` [ARTESUNATE], for which the 50% effect level with Plasmodium berghei (ED50) was put at a dose of 1.37 mg/kg/day. For the same compound, the result in the data set with Plasmodium falciparum [2] was Active. In the case of `CC(C)Oc1nncc(-c2cnnc(OCCN(C)C)n2)n1`, the half-inhibitory concentration (IC50) in the data set on Plasmodium falciparum [1] came to 440 nM. With `CCCOc1nncc(-c2cnnc(OCCC)n2)n1`, it took 110 nM to reach half-maximal inhibition with Plasmodium falciparum [1] (IC50). Still for that read-out and setting: the result for `[N-]=[N+]=NCCCSc1nncc(-c2cnnc(SCCCN=[N+]=[N-])n2)n1` reads 31 nM. The same measure, in the same setting: under `COc1nncc(-c2cnnc(SCCN(C)C)n2)n1` stands 850 nM.

In the case of `CN(C)CCOc1nncc(-c2cnnc(OCCC(F)(F)F)n2)n1`, the solubility kinetic in [4] and in [6] was 50 µg/mL (≈ 139 µM) throughout. Further, the figures for the microsomal CLint in data set [5] and in data set [8] were 7 µL/min/mg and 33 µL/min/mg, respectively. Also, the figures for the half-life in data set [7] and in [9] were 232 min and 53 min, respectively. The same compound displayed an IC50 in the data set on Plasmodium falciparum [1] of 54 nM. Consider `CCCCc1nncc(-c2cnnc(OCCN(C)C)n2)n1`, for which the solubility kinetic in [4] and in data set [6] was 25 µg/mL (≈ 82.4 µM) throughout. Besides, the microsomal CLint in data set [5] stood at 25 µL/min/mg; in data set [8] it was 109 µL/min/mg. The half-life in data set [7] was 69 min; in data set [9] it was 16 min. It took 30 nM to reach half-maximal inhibition in the data set with Plasmodium falciparum [1] (IC50). Take `CC(C)Oc1nncc(-c2cnnc(OC(C)C)n2)n1`: 2000 nM corresponded to half-maximal inhibition in the data set on Plasmodium falciparum [1] (IC50). In other words, the single-digit micromolar range.
